Experimental data published in article PMC8388771, “Cationic Peptidomimetic Amphiphiles Having a N-Aryl- or N-Naphthyl-1,2,3-Triazole Core Structure Targeting Clostridioides (Clostridium) difficile: Synthesis, Antibacterial Evaluation, and an In Vivo C. difficile Infection Model” (Antibiotics, 2021).
Converted amounts (≈) assume the structure as drawn. Like-named read-outs stand apart in the source and are kept apart here.

What was measured:
S. aureus ATCC 29213 = assay: Primary MIC assay, S. aureus ATCC 29213; type: cell-based; conditions: Staphylococcus aureus
Experimental: (§1) The N-arytriazole and N-naphthyltriazole peptidomimetics were subjected to antimicrobial screening. […] Vancomycin, colistin, fluconazole, and tamoxifen were used as positive controls (see Table 1 for details).
(§2) Primary screening (Gram-positive bacteria). Primary MIC assays were performed as described by the Clinical and Laboratory Standards Institute for aerobic and anaerobic bacteria. MIC values for vancomycin were within acceptable QC ranges.

C. difficile ATCC 700057 = assay: Primary MIC assay, C. difficile ATCC 700057; type: cell-based, Clostridioides difficile; conditions: Clostridioides difficile
Experimental: as §1, §2

[1] = tested on: Cryptococcus neoformans var. grubii ATCC 208821; assay: CO-ADD MIC assay, C. neoformans var. grubii ATCC 208821; type: cell-based; conditions: for MIC: Cryptococcus neoformans, ATCC208821, Table S1
Excerpt: as §1
(§3) Secondary screening (MRSA and Gram-negative bacteria) and cytotoxicity assay–performed by the Community for Open Antimicrobial Drug Discovery (CO-ADD). Samples were provided to CO-ADD [29] for antimicrobial screening by whole cell growth inhibition assays.

C. albicans ATCC 90028 = assay: CO-ADD MIC assay, C. albicans ATCC 90028; type: cell-based; conditions: Candida albicans, ATCC90028, Table S1
Excerpt: as §1, §3

S. pneumoniae ATCC 49619 = assay: Primary MIC assay, S. pneumoniae ATCC 49619; type: cell-based, Streptococcus pneumoniae; conditions: Streptococcus pneumoniae
Experimental: as §1, §2

C. difficile 132 (RT027) = assay: Primary MIC assay, C. difficile 132 (RT027); type: cell-based, Clostridioides difficile; conditions: Clostridioides difficile, read-out: MIC C. difficile 132 (RT027)
Experimental: as §1, §2

A. baumannii ATCC 19606 = assay: CO-ADD MIC assay, A. baumannii ATCC 19606; type: cell-based; conditions: for MIC: Acinetobacter baumannii, ATCC19606, Table S1
Excerpt: as §1, §3
(§4) Bacterial Inhibition–MIC Assay. These were performed as described previously.

S. aureus ATCC 43300 = assay: CO-ADD MIC assay, S. aureus ATCC 43300 (MRSA); type: cell-based; conditions: Staphylococcus aureus, read-out: MIC S. aureus ATCC 43300
Excerpt: as §1, §3, §4

[2] = tested on: K. pneumoniae ATCC 700603; assay: CO-ADD MIC assay, K. pneumoniae ATCC 700603; type: cell-based; conditions: for MIC: Klebsiella pneumoniae, ATCC700603, Table S1, multi-drug resistant
Excerpt: as §1, §3, §4

P. aeruginosa ATCC 27853 = assay: CO-ADD MIC assay, P. aeruginosa ATCC 27853; type: cell-based; conditions: for MIC: Pseudomonas aeruginosa, ATCC27853, Table S1
Excerpt: as §1, §3, §4

E. faecalis ATCC 29212 = assay: Primary MIC assay, E. faecalis ATCC 29212; type: cell-based, Enterococcus faecalis; conditions: Enterococcus faecalis
Experimental: as §1, §2

E. coli ATCC 25922 [3] = assay: Primary MIC assay, E. coli ATCC 25922; type: cell-based; conditions: for MIC: Escherichia coli
[4] = Cytotoxicity (CC50) assay by CO-ADD; type: cell-based, human; conditions: human, HEK293 cells (ATCC CRL-1573); Table 1; cytotoxicity on HEK293 cells, tested at ≤32 µg/mL
Excerpt: as §1, §3
Cytotoxicity Assay. These were performed as described previously.

S. aureus NCTC 10442 = assay: Primary MIC assay, S. aureus NCTC 10442 (MRSA); type: cell-based; conditions: Staphylococcus aureus
Experimental: as §1, §2

E. coli ATCC 25922 [5] = assay: CO-ADD MIC assay, E. coli ATCC 25922; type: cell-based; conditions: for MIC: Escherichia coli, ATCC25922, Table S1
Excerpt: as §1, §3, §4

human erythrocytes = assay: Hemolysis assay, HC50 determination; type: cell-based
Experimental: Hemolysis assay (human erythrocytes)–HC50 determination. These were performed as described previously.

[6] = ATCC29213, Table 1, read-out: MIC S. aureus ATCC 29213
[7] = ATCC700057, Table 1, read-out: MIC C. difficile ATCC 700057
[8] = ATCC49619, Table 1, read-out: MIC S. pneumoniae ATCC 49619
[9] = ATCC29212, Table 1, read-out: MIC E. faecalis ATCC 29212
[10] = ATCC25922, Table 1, read-out: MIC E. coli ATCC 25922
[11] = Table 1, MRSA, read-out: MIC S. aureus NCTC 10442
[12] = Table 1, lysis of human erythrocytes
[13] = Table S1, footnote says lysis of sheep erythrocytes

MIC (S. aureus ATCC 29213; [6]) [µg/mL]	MIC (C. difficile ATCC 700057; [7]) [µg/mL]	MIC [1] [µg/mL]	MIC (C. albicans ATCC 90028) [µg/mL]	MIC (S. pneumoniae ATCC 49619; [8]) [µg/mL]	MIC (C. difficile 132 (RT027); Table 1) [µg/mL]	MIC (A. baumannii ATCC 19606) [µg/mL]	MIC (S. aureus ATCC 43300; Table S1, MRSA, CO-ADD) [µg/mL]	MIC [2] [µg/mL]	MIC (P. aeruginosa ATCC 27853) [µg/mL]	MIC (E. faecalis ATCC 29212; [9]) [µg/mL]	MIC (E. coli ATCC 25922 [3]; [10]) [µg/mL]	MIC (S. aureus NCTC 10442; [11]) [µg/mL]	MIC (E. coli ATCC 25922 [5]) [µg/mL]	Molecule	CC50 [4] [µg/mL]	HC50 (human erythrocytes; [12]) [µg/mL]	HC50 (human erythrocytes; [13]) [µg/mL]	other results
16	128	4 to 8	> 32	4	128	32	8	> 32	32	64	64	16	32	CC(C)CCc1cnnn1-c1c(OCC(=O)N[C@H](CCCCN)C(=O)N[C@H](CCCNC(=N)N)Cn2cc(C3CCCCC3)nn2)ccc2ccccc12.Cl.Cl [Compound 43]	> 32	>32	> 32	MIC C. neoformans var. grubii ATCC 208821 ([1]; Table S1): 8 µg/mL
32	32	32	> 32	32	32	> 32	32	> 32	> 32	32	> 128	32	> 32	CC(C)CCc1cnnn1-c1ccccc1OCC(=O)N[C@H](CCCNC(=N)N)Cn1cc(Cc2ccccc2)nn1.Cl [Compound 16]	> 32	>32	> 32	–
32 (≈ 43.4 µM)	> 32	> 32	> 32	> 32	> 32	> 32	32 (≈ 43.4 µM)	> 32	> 32	> 32	> 32	> 32	> 32	CC(C)CCOc1ccccc1-n1nncc1COCC(=O)N[C@H](CCCCN)C(=O)N[C@H](CCCNC(=N)N)Cn1cc(CC2CCCCC2)nn1 [Compound 49]	> 32	17.1	17.1	–
128 (≈ 181 µM)	128 (≈ 181 µM)	16 (≈ 22.6 µM)	> 32	128 (≈ 181 µM)	> 128	> 32	32 (≈ 45.3 µM)	> 32	> 32	> 128	> 128	128 (≈ 181 µM)	> 32	CC(C)CCc1cnnn1-c1ccccc1OCC(=O)N[C@H](CCCCN)C(=O)N[C@H](CCCNC(=N)N)Cn1cc(CC2CCCCC2)nn1 [Compound 38]	32 (≈ 45.3 µM)	32	32	–
32	32	32	> 32	16	64	> 32	32	> 32	> 32	32	128	32	> 32	CC(C)CCc1cn(-c2ccccc2OCC(=O)N[C@H](CCCNC(=N)N)Cn2cc(-c3ccc(F)cc3)nn2)nn1.Cl [Compound 12]	> 32	>32	> 32	–
–	–	0.25 (≈ 0.816 µM)	0.125 (≈ 0.408 µM)	–	–	–	–	–	–	–	–	–	–	OC(Cn1cncn1)(Cn1cncn1)c1ccc(F)cc1F [flucona-zole, fluconazole, reference compound]	–	–	–	–
16	128	–	> 32	4	128	> 32	16	> 32	32	64	128	16	32	CC(C)CCc1cnnn1-c1c(OCC(=O)N[C@H](CCCCN)C(=O)N[C@H](CCCNC(=N)N)Cn2cc(Cc3ccccc3)nn2)ccc2ccccc12.Cl.Cl [Compound 45]	> 32	>32	> 32	–

The next lines start with the molecule.

Molecule	MIC (S. aureus ATCC 29213; [6]) [µg/mL]	MIC (C. difficile ATCC 700057; [7]) [µg/mL]	MIC [1] [µg/mL]	MIC (C. albicans ATCC 90028) [µg/mL]	MIC (S. pneumoniae ATCC 49619; [8]) [µg/mL]	MIC (C. difficile 132 (RT027); Table 1) [µg/mL]	MIC (A. baumannii ATCC 19606) [µg/mL]	MIC (S. aureus ATCC 43300; Table S1, MRSA, CO-ADD) [µg/mL]	MIC [2] [µg/mL]	MIC (P. aeruginosa ATCC 27853) [µg/mL]	MIC (E. faecalis ATCC 29212; [9]) [µg/mL]	MIC (E. coli ATCC 25922 [3]; [10]) [µg/mL]	MIC (S. aureus NCTC 10442; [11]) [µg/mL]	MIC (E. coli ATCC 25922 [5]) [µg/mL]	CC50 [4] [µg/mL]	HC50 (human erythrocytes; [12]) [µg/mL]	HC50 (human erythrocytes; [13]) [µg/mL]	other results
CC(C)CCc1cn(-c2ccccc2OCC(=O)N[C@H](CCCNC(=N)N)Cn2cc(Cc3ccccc3)nn2)nn1.Cl [Compound 13]	32	32	32	> 32	16	64	> 32	32	> 32	> 32	32	128	32	> 32	> 32	>32	> 32	–
CC(C)CCc1cnnn1-c1c(OCC(=O)N[C@H](CCCNC(=N)N)Cn2cc(Cc3ccccc3)nn2)ccc2ccccc12.Cl [Compound 26]	8	64	> 32	32	4	> 128	> 32	16	> 32	> 32	16	64	8	> 32	23.5	>32	> 32	–
CC/C(=C(\c1ccccc1)c1ccc(OCCN(C)C)cc1)c1ccccc1 [tamoxifen, reference compound]	–	–	–	–	–	–	–	–	–	–	–	–	–	–	13.1 (≈ 35.3 µM)	–	–	–
CN[C@H](CC(C)C)C(=O)N[C@H]1C(=O)N[C@@H](CC(N)=O)C(=O)N[C@H]2C(=O)N[C@H]3C(=O)N[C@H](C(=O)N[C@H](C(=O)O)c4cc(O)cc(O)c4-c4cc3ccc4O)[C@H](O)c3ccc(c(Cl)c3)Oc3cc2cc(c3O[C@@H]2O[C@H](CO)[C@@H](O)[C@H](O)[C@H]2O[C@H]2C[C@](C)(N)[C@H](O)[C@H](C)O2)Oc2ccc(cc2Cl)[C@H]1O [vanc, vancomycin, reference compound]	–	–	–	–	–	–	–	–	–	–	–	–	–	–	–	–	–	MIC (S. aureus ATCC 29213; ATCC29213, read-out: MIC S. aureus ATCC 29213): 1 µg/mL (≈ 0.69 µM); MIC (C. difficile ATCC 700057; ATCC700057, read-out: MIC C. difficile ATCC 700057): 0.5 µg/mL (≈ 0.345 µM); MIC (S. pneumoniae ATCC 49619; ATCC49619, read-out: MIC S. pneumoniae ATCC 49619): 1 µg/mL (≈ 0.69 µM); MIC (C. difficile 132 (RT027)): 0.5 µg/mL (≈ 0.345 µM); MIC (S. aureus ATCC 43300): 1 µg/mL (≈ 0.69 µM); MIC (E. faecalis ATCC 29212; ATCC29212, read-out: MIC E. faecalis ATCC 29212): 4 µg/mL (≈ 2.76 µM); MIC (E. coli ATCC 25922 [3]; ATCC25922, read-out: MIC E. coli ATCC 25922): > 16 µg/mL; MIC (S. aureus NCTC 10442; MRSA / NCTC 10442 / NCTC 104422, read-out: MIC S. aureus NCTC 104422): 1 µg/mL (≈ 0.69 µM); MIC (S. aureus NCTC 10442; read-out: MIC S. aureus NCTC 10442): 1 µg/mL (≈ 0.69 µM)
Cl.Cl.N=C(N)NCCC[C@H](Cn1cc(Cc2ccccc2)nn1)NC(=O)[C@@H](CCCCN)NC(=O)COc1ccccc1-c1cn(Cc2ccccc2)nn1 [Compound 46]	32	128	–	32	16	128	> 32	16	> 32	> 32	64	128	32	> 32	> 32	>32	> 32	–
colistin [reference compound]	–	–	–	–	–	–	–	–	–	–	–	–	–	–	–	–	–	MIC A. baumannii ATCC 19606 (A. baumannii ATCC 19606; Table S1): 0.25 µg/mL; MIC K. pneumoniae ATCC 700603 ([2]; Table S1, multi-drug resistant): 0.25 µg/mL; MIC P. aeruginosa ATCC 27853 (P. aeruginosa ATCC 27853; Table S1): 0.25 µg/mL; MIC E. coli ATCC 25922 (E. coli ATCC 25922 [3]; Table 1): 0.125 µg/mL; MIC E. coli ATCC 25922 (E. coli ATCC 25922 [5]; Table S1): 0.125 µg/mL
